Consider 20 molecules from the supplement of paper PMC11368000.

A value given as a limit tells only on which side of the number the result lay.

The subject of the first test is 20084 (donor line of iPSC-derived cardiomyocytes). In words: POD (EC05) for increase in Ca2+ transient decay-to-rise ratio (QT prolongation) vs vehicle; higher = less potent (higher point of departure). The conditions noted are these: exposure time: 90 min. In short, it runs like this:
(§1)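 Ca2+ flux in human iPSC-derived cardiomyocytes from 16 donors was recorded on a FLIPR Tetra for 100 s before and after a 90 min exposure at 37 °C to 0.1, 1, 10 and 100 µM (final, 0.5% DMSO). Donor-specific points of departure came from hierarchical Bayesian Hill fits to vehicle-normalised beat frequency, decay-to-rise ratio or peak frequency. A 5% change served as threshold, except for peak frequency, where it was a 95% loss.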
Consider `O=C(O)CCC(F)(F)C(F)(F)C(F)(F)C(F)(F)C(F)(F)F` [2H,2H,3H,3H-Perfluorooctanoic_acid], for which the POD vs vehicle was over 100 µM.
As for `O=C(O)C=C(C(F)(F)F)C(F)(F)F` [3,3-Bis(trifluoromethyl)-2-propenoic_acid], the POD vs vehicle is over 100 µM.
`O=C(O)C=CC(F)(C(F)(F)F)C(F)(F)F` [3-(Perfluoroisopropyl)-2-propenoic_acid]: the POD vs vehicle is over 100 µM.
Take `O=C(O)CCC(F)(F)C(F)(F)C(F)(F)C(F)(F)C(F)(F)C(F)(F)C(F)(F)F` [3-Perfluoroheptylpropanoic_acid]: the POD vs vehicle was 36.7 µM.
The same measure, in the same setting: the value for `O=C(O)CCC(F)(F)C(F)(F)C(F)(F)F` [3:3 Fluorotelomer carboxylic acid] was over 100 µM; that for `O=C(CC(=O)C(F)(F)C(F)(F)F)C(F)(F)F` [3H,3H-Perfluoro-2,4-hexanedione] was over 100 µM.
As to `OCCC(F)(F)C(F)(F)C(F)(F)C(F)(F)F` [4:2 Fluorotelomer alcohol], the POD vs vehicle is over 100 µM.
On to `O=S(=O)(O)CCC(F)(F)C(F)(F)C(F)(F)C(F)(F)F` [4:2 Fluorotelomer sulfonic acid], for which the POD vs vehicle was over 100 µM.
Turning to `OCC(F)(F)C(F)(F)C(F)(F)C(F)(F)C(F)(F)C(F)(F)F` [6:1 Fluorotelomer alcohol], the POD vs vehicle is over 100 µM.
As to `NC(=O)C(F)(F)C(F)(F)C(F)(F)F` [Heptafluorobutyramide], the POD vs vehicle was over 100 µM.
As to `CN(CCO)S(=O)(=O)C(F)(F)C(F)(F)C(F)(F)C(F)(F)C(F)(F)C(F)(F)C(F)(F)C(F)(F)F` [N-Methyl-N-(2-hydroxyethyl)perfluorooctanesulfonamide], the POD vs vehicle is over 100 µM.
Consider `N=C(N)C(F)(F)C(F)(F)C(F)(F)C(F)(F)C(F)(F)C(F)(F)C(F)(F)F` [Perfluorooctanamidine], for which the POD vs vehicle is 0.145 µM.

The next test concerns 1368 (donor line of iPSC-derived cardiomyocytes). The test is described as above. The conditions noted are these: exposure time: 90 min. In short, it runs like this:
as §1
With `NC(=O)C(F)(F)C(F)(F)C(F)(F)C(F)F`, the POD vs vehicle is over 100 µM.
As to `OCC(O)CC(F)(F)C(F)(F)C(F)(F)C(F)(F)C(F)(F)C(F)(F)C(F)(F)C(F)(F)F` (stereo not given) [1-(Perfluorofluorooctyl)propane-2,3-diol], the POD vs vehicle was over 100 µM.
Same read-out and setting: the result for `CC(O)C(F)(F)C(F)(F)F` (stereo not given) [1-Pentafluoroethylethanol] reads over 100 µM; that for `OCC(F)(F)C(F)(F)C(F)(F)C(F)F` [1H,1H,5H-Perfluoropentanol], over 100 µM; that for `O=S(=O)(OCC(F)(F)F)C(F)(F)C(F)(F)C(F)(F)C(F)(F)F` [2,2,2-Trifluoroethyl_perfluorobutanesulfonate], over 100 µM.
Regarding `O=C(O)C(F)(F)C(F)(F)C(F)F` [2,2,3,3,4,4-Hexafluorobutanoic_acid], the POD vs vehicle is over 100 µM.
In the case of `NC(O)(C(F)(F)F)C(F)(F)F` [2-Aminohexafluoropropan-2-ol], the POD vs vehicle was over 100 µM.
For `O=C(O)CCC(F)(F)C(F)(F)C(F)(F)C(F)(F)C(F)(F)F` [2H,2H,3H,3H-Perfluorooctanoic_acid], the POD vs vehicle was over 100 µM.
`O=C(O)C=C(C(F)(F)F)C(F)(F)F` [3,3-Bis(trifluoromethyl)-2-propenoic_acid]: the POD vs vehicle was over 100 µM.
On to `O=C(O)C=CC(F)(C(F)(F)F)C(F)(F)F` [3-(Perfluoroisopropyl)-2-propenoic_acid], for which the POD vs vehicle was over 100 µM.
As for `O=C(O)CCC(F)(F)C(F)(F)C(F)(F)C(F)(F)C(F)(F)C(F)(F)C(F)(F)F` [3-Perfluoroheptylpropanoic_acid], the POD vs vehicle is over 100 µM.
Turning to `O=C(O)CCC(F)(F)C(F)(F)C(F)(F)F` [3:3 Fluorotelomer carboxylic acid], the POD vs vehicle is over 100 µM.
Turning to `O=C(CC(=O)C(F)(F)C(F)(F)F)C(F)(F)F` [3H,3H-Perfluoro-2,4-hexanedione], the POD vs vehicle was over 100 µM.
For `OCCC(F)(F)C(F)(F)C(F)(F)C(F)(F)F` [4:2 Fluorotelomer alcohol], the POD vs vehicle was over 100 µM.
In the case of `O=S(=O)(O)CCC(F)(F)C(F)(F)C(F)(F)C(F)(F)F` [4:2 Fluorotelomer sulfonic acid], the POD vs vehicle is over 100 µM.
Regarding `OCC(F)(F)C(F)(F)C(F)(F)C(F)(F)C(F)(F)C(F)(F)F` [6:1 Fluorotelomer alcohol], the POD vs vehicle is over 100 µM.
With `NC(=O)C(F)(F)C(F)(F)C(F)(F)F` [Heptafluorobutyramide], the POD vs vehicle was over 100 µM.
On to `CN(CCO)S(=O)(=O)C(F)(F)C(F)(F)C(F)(F)C(F)(F)C(F)(F)C(F)(F)C(F)(F)C(F)(F)F` [N-Methyl-N-(2-hydroxyethyl)perfluorooctanesulfonamide], for which the POD vs vehicle is over 100 µM.
Still for that read-out and setting: the result for `NC(=O)C(F)(F)C(F)(F)C(F)(F)C(F)(F)C(F)(F)C(F)(F)C(F)(F)F` [Perfluorooctanamide] reads over 100 µM; that for `N=C(N)C(F)(F)C(F)(F)C(F)(F)C(F)(F)C(F)(F)C(F)(F)C(F)(F)F` [Perfluorooctanamidine], over 100 µM.

In a further test the test system is 1392 (donor line of iPSC-derived cardiomyocytes). The test is described as above. The conditions noted are these: exposure time: 90 min. In short, it runs like this:
as §1
Consider `NC(=O)C(F)(F)C(F)(F)C(F)(F)C(F)F`, for which the POD vs vehicle was over 100 µM.
As to `OCC(O)CC(F)(F)C(F)(F)C(F)(F)C(F)(F)C(F)(F)C(F)(F)C(F)(F)C(F)(F)F` (stereo not given) [1-(Perfluorofluorooctyl)propane-2,3-diol], the POD vs vehicle is over 100 µM.
Still for that read-out and setting: the result for `CC(O)C(F)(F)C(F)(F)F` (stereo not given) [1-Pentafluoroethylethanol] reads over 100 µM.
For the molecule `OCC(F)(F)C(F)(F)C(F)(F)C(F)F` [1H,1H,5H-Perfluoropentanol], the POD vs vehicle was over 100 µM.
As to `O=S(=O)(OCC(F)(F)F)C(F)(F)C(F)(F)C(F)(F)C(F)(F)F` [2,2,2-Trifluoroethyl_perfluorobutanesulfonate], the POD vs vehicle is over 100 µM.
Same read-out and setting: the value for `O=C(O)C(F)(F)C(F)(F)C(F)F` [2,2,3,3,4,4-Hexafluorobutanoic_acid] was over 100 µM; that for `NC(O)(C(F)(F)F)C(F)(F)F` [2-Aminohexafluoropropan-2-ol] was over 100 µM; that for `O=C(O)CCC(F)(F)C(F)(F)C(F)(F)C(F)(F)C(F)(F)F` [2H,2H,3H,3H-Perfluorooctanoic_acid] was over 100 µM.
For the molecule `O=C(O)C=C(C(F)(F)F)C(F)(F)F` [3,3-Bis(trifluoromethyl)-2-propenoic_acid], the POD vs vehicle was over 100 µM.
Turning to `O=C(O)C=CC(F)(C(F)(F)F)C(F)(F)F` [3-(Perfluoroisopropyl)-2-propenoic_acid], the POD vs vehicle is over 100 µM.
As for `O=C(O)CCC(F)(F)C(F)(F)C(F)(F)C(F)(F)C(F)(F)C(F)(F)C(F)(F)F` [3-Perfluoroheptylpropanoic_acid], the POD vs vehicle was over 100 µM.
With `O=C(O)CCC(F)(F)C(F)(F)C(F)(F)F` [3:3 Fluorotelomer carboxylic acid], the POD vs vehicle is over 100 µM.
Take `O=C(CC(=O)C(F)(F)C(F)(F)F)C(F)(F)F` [3H,3H-Perfluoro-2,4-hexanedione]: the POD vs vehicle is over 100 µM.
On to `OCCC(F)(F)C(F)(F)C(F)(F)C(F)(F)F` [4:2 Fluorotelomer alcohol], for which the POD vs vehicle is over 100 µM.
On to `O=S(=O)(O)CCC(F)(F)C(F)(F)C(F)(F)C(F)(F)F` [4:2 Fluorotelomer sulfonic acid], for which the POD vs vehicle was over 100 µM.
`OCC(F)(F)C(F)(F)C(F)(F)C(F)(F)C(F)(F)C(F)(F)F` [6:1 Fluorotelomer alcohol]: the POD vs vehicle was over 100 µM.
Take `NC(=O)C(F)(F)C(F)(F)C(F)(F)F` [Heptafluorobutyramide]: the POD vs vehicle was over 100 µM.
On the same count and under the same terms, the result for `CN(CCO)S(=O)(=O)C(F)(F)C(F)(F)C(F)(F)C(F)(F)C(F)(F)C(F)(F)C(F)(F)C(F)(F)F` [N-Methyl-N-(2-hydroxyethyl)perfluorooctanesulfonamide] reads over 100 µM.
